Data reported in ChEMBL document CHEMBL1201862, “PubChem BioAssay data set” (2004).
Activity calls are given as the source filed them. Cut-off read from the data, not from the text of the source: actives have a measured IC50 and inactives only a lower limit.

Target: Envelope glycoprotein gp160 (Human immunodeficiency virus 1, UniProt Q6QLK5)
Assay: inhibitors of HIV fusion peptide binding, primary screen, biochemical, uHTS, fluorescence dequenching (AID 1986)

Envelope glycoprotein gp160, sequence (Q6QLK5 whole entry, the tested form may be a part): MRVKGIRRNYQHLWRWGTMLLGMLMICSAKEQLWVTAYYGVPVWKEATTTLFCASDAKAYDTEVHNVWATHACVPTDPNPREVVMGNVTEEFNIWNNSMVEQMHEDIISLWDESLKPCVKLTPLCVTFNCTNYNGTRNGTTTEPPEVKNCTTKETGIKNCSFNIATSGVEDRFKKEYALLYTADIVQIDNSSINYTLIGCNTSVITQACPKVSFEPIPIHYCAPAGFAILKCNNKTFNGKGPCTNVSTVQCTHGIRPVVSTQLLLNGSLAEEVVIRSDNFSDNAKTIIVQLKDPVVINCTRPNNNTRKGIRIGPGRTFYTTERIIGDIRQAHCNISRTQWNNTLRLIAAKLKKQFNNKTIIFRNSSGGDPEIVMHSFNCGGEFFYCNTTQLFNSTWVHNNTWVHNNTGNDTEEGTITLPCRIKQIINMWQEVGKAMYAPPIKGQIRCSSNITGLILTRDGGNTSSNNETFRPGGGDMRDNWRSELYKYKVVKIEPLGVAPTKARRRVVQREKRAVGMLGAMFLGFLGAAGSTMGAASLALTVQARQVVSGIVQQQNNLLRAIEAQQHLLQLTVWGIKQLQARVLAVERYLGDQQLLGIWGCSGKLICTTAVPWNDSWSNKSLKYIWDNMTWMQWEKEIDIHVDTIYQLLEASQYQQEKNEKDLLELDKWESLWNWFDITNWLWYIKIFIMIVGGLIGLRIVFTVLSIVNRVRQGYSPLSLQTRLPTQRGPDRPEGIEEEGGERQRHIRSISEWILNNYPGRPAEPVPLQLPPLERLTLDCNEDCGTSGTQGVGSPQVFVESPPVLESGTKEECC

Row | Structure (SMILES) | IC50
1 | O=C(O)c1[nH]c2ccccc2c1C(c1c(F)cccc1Cl)c1c(C(=O)O)[nH]c2ccccc12 | 13.4 µM (active)
2 | Cc1nn(CCc2nn[nH]n2)c2nc(-c3ccc(C4CCCCC4)cc3)cc(C(F)(F)F)c12 | 12.4 µM (active)
